# Reference: patent publication US20060069132A1, “Azolecarboxamide herbicides” (priority 2004, published 2006)
# What was measured:
# common ragweed = experiment: Test C pre-/postemergence herbicide test; type: in vivo, Ambrosia elatior; set-up: key to Plant response rating, Ragweed: 0 = no effect, 100 = complete control
# In short: (§1)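 Pre- and postemergence application, solvent/surfactant formulation; post at 1- to 4-leaf stage (2–18 cm). Greenhouse 12–14 d. Visual rating vs controls, 0 = no effect, 100 = complete control.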
# redroot pigweed = experiment: Test A pre-/postemergence herbicide test; type: in vivo, Amaranthus retroflexus
# In short: (§2)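 Visual injury rating on a 0–100 scale (0 no effect, 100 complete control) versus untreated controls, about ten days after treatment in greenhouse. Pre: directed soil spray onto seeded sandy loam. Post: spray to runoff on plants 2–10 cm tall at one- to two-leaf stage.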
# ducksalad = experiment: Test C flooded paddy test; type: in vivo, Heteranthera limosa; details: for Plant response rating, Ducksalad: 500 g ai/ha, visual rating after 12 to 14 days
# large crabgrass = experiment: Test C pre-/postemergence herbicide test; type: in vivo, Digitaria sanguinalis
# In short: as §1
# yellow nutsedge = experiment: Test C pre-/postemergence herbicide test; type: in vivo, Cyperus esculentus
# In short: as §1
# pigweed = experiment: Test C pre-/postemergence herbicide test; type: in vivo, Amaranthus retroflexus
# In short: as §1
# velvetleaf = experiment: Test C pre-/postemergence herbicide test; type: in vivo, Abutilon theophrasti
# In short: as §1
# morningglory = experiment: Test A pre-/postemergence herbicide test; type: in vivo, Ipomoea spp.
# In short: as §2
# soybean = experiment: Test C pre-/postemergence herbicide test; type: in vivo, Glycine max
# In short: as §1
# goosegrass = experiment: Test C pre-/postemergence herbicide test; type: in vivo, Eleusine indica
# In short: as §1
# barnyardgrass = experiment: Test C flooded paddy test; type: in vivo, Echinochloa crus-galli; details: for Plant response rating, Barnyardgrass: 500 g ai/ha, visual rating after 12 to 14 days
# In short: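 After a postemergence application at 1 to 4 leaves (plants 2–18 cm high), or at 2 leaves for barnyardgrass in flooded paddy, plants stayed in the greenhouse for 12 to 14 days. Damage was then judged visually relative to control plants, with 100 indicating complete control.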
# giant foxtail [1] = experiment: Test A pre-/postemergence herbicide test; type: in vivo, Setaria faberi
# In short: as §2
# giant foxtail [2] = experiment: Test C pre-/postemergence herbicide test; type: in vivo, Setaria faberi
# In short: as §1
# [3] = 125 g ai/ha, scale 0 (no effect) to 100 (complete control), visual, 12 to 14 days, preemergence
# [4] = Preemergence, 500 g ai/ha, scale 0 to 100, 0 no effect, 100 complete control
# [5] = Postemergence, 250 g ai/ha, 0 to 100 scale, 0 no effect, 100 complete control
# [6] = Postemergence, 1000 g ai/ha, 0 to 100 scale, 0 no effect, 100 complete control
# [7] = Preemergence, 1000 g ai/ha, visual rating, 0 to 100 scale (0 no effect, 100 complete control)
# [8] = preemergence, 250 g ai/ha, visual injury, 0 to 100 scale (0 no effect, 100 complete control)
# [9] = 62 g ai/ha, scale 0 to 100 (0 no effect, 100 complete control)
# [10] = 125 g ai/ha, scale 0 to 100 (0 no effect, 100 complete control)
# [11] = 250 g ai/ha, scale of 0 to 100, 0 is no effect, 100 is complete control
# [12] = scale 0 to 100 (0 no effect, 100 complete control)
# [13] = 250 g ai/ha, scale 0 to 100 (0 no effect, 100 complete control), visual, 12 to 14 days, preemergence
# [14] = 125 g ai/ha, scale of 0 to 100, 0 is no effect, 100 is complete control
# [15] = Postemergence, 250 g ai/ha, scale 0 to 100, 0 no effect, 100 complete control
# [16] = postemergence, 125 g ai/ha, scale 0 to 100
# [17] = postemergence, 62 g ai/ha, scale 0 to 100
# [18] = Postemergence, 500 g ai/ha, 0 to 100 scale, 0 no effect, 100 complete control
# [19] = Postemergence, 2000 g ai/ha, 0 to 100 scale, 0 no effect, 100 complete control
# [20] = Preemergence, 2000 g ai/ha, visual rating, 0 to 100 scale (0 no effect, 100 complete control)
# [21] = Preemergence, 500 g ai/ha, visual rating, 0 to 100 scale (0 no effect, 100 complete control)
structure (smiles),measurement,setting,value
CCn1nc(C(C)(C)C)cc1C(=O)Nc1cccc(S(=O)(=O)C(F)(F)F)c1 [Compound 134],"Plant response rating (0 = no effect, 100 = complete control), Ragweed","common ragweed; 62 g ai/ha, preemergence",0
same,"Plant response rating, Ragweed",common ragweed; [3],25
same,Ragweed plant response rating,common ragweed; [4],100
same,Pigweed plant response rating,redroot pigweed; [5],85
same,"Plant response rating, Pigweed",redroot pigweed; [6],100
same,Pigweed plant response rating,redroot pigweed; [7],100
same,Pigweed plant response rating,redroot pigweed; [8],35
same,Ducksalad plant response rating,ducksalad; [9],45
same,Ducksalad plant response rating,ducksalad; [10],70
same,Ducksalad plant response rating,ducksalad; [11],90
same,"Plant response rating, Ducksalad",ducksalad; [12],90
same,"Plant response rating (0 = no effect, 100 = complete control), Crabgrass, Large","large crabgrass; 62 g ai/ha, preemergence",65
same,"Plant response rating, Crabgrass, Large",large crabgrass; [3],95
same,"Plant response rating, Crabgrass, Large",large crabgrass; [13],95
same,"Crabgrass, Large plant response rating",large crabgrass; [4],100
same,"Plant response rating (0 = no effect, 100 = complete control), Nutsedge, Yellow","yellow nutsedge; 62 g ai/ha, preemergence",0
same,"Plant response rating, Nutsedge, Yellow",yellow nutsedge; [3],0
same,"Nutsedge, Yellow plant response rating",yellow nutsedge; [4],0
same,"Plant response rating (0 = no effect, 100 = complete control), Pigweed","pigweed; 62 g ai/ha, preemergence",95
same,"Plant response rating, Pigweed",pigweed; [3],95
same,Pigweed plant response rating,pigweed; [4],100
same,"Plant response rating, Velvetleaf",velvetleaf; [3],90
same,Velvetleaf plant response rating,velvetleaf; [4],100
same,Morningglory plant response rating,morningglory; [5],10
same,"Plant response rating, Morningglory",morningglory; [6],20
same,Morningglory plant response rating,morningglory; [7],30
same,Morningglory plant response rating,morningglory; [8],5
same,"Plant response rating (0 = no effect, 100 = complete control), Soybean","soybean; 62 g ai/ha, preemergence",0
same,"Plant response rating, Soybean",soybean; [3],0
same,Soybean plant response rating,soybean; [4],35
same,"Plant response rating (0 = no effect, 100 = complete control), Goosegrass","goosegrass; 62 g ai/ha, preemergence",20
same,"Plant response rating, Goosegrass",goosegrass; [3],65
same,Goosegrass plant response rating,goosegrass; [4],95
same,Barnyardgrass plant response rating,barnyardgrass; [9],10
same,Barnyardgrass plant response rating,barnyardgrass; [14],25
same,Barnyardgrass plant response rating,barnyardgrass; [11],50
same,"Plant response rating, Barnyardgrass",barnyardgrass; [12],50
same,"Foxtail, Giant plant response rating",giant foxtail [1]; [5],15
same,"Plant response rating, Foxtail, Giant",giant foxtail [1]; [6],35
same,"Foxtail, Giant plant response rating",giant foxtail [1]; [7],45
same,"Foxtail, Giant plant response rating",giant foxtail [1]; [8],20
same,"Plant response rating (0 = no effect, 100 = complete control), Foxtail, Giant","giant foxtail [2]; 62 g ai/ha, preemergence",0
same,"Plant response rating, Foxtail, Giant",giant foxtail [2]; [3],0
same,"Plant response rating, Foxtail, Giant",giant foxtail [2]; [13],0
same,"Foxtail, Giant plant response rating",giant foxtail [2]; [4],85
CCn1nc(C(C)(C)C)cc1C(=O)Nc1cccc(C#N)c1 [Compound 139],"Plant response rating (0 = no effect, 100 = complete control), Ragweed","common ragweed; 62 g ai/ha, preemergence",50
same,"Plant response rating, Ragweed",common ragweed; [3],50
same,"Plant response rating, Ragweed",common ragweed; [15],45
same,"Plant response rating, Ragweed",common ragweed; [16],45
same,"Plant response rating, Ragweed",common ragweed; [17],0
same,Pigweed plant response rating,redroot pigweed; [18],75
same,"Plant response rating, Pigweed",redroot pigweed; [19],100
same,Pigweed plant response rating,redroot pigweed; [20],100
same,Pigweed plant response rating,"redroot pigweed; preemergence, 500 g ai/ha, visual injury, 0 to 100 scale (0 no effect, 100 complete control)",100
same,Ducksalad plant response rating,ducksalad; [9],0
same,Ducksalad plant response rating,ducksalad; [10],70
same,Ducksalad plant response rating,ducksalad; [11],85
same,"Plant response rating, Ducksalad",ducksalad; [12],90
same,"Plant response rating (0 = no effect, 100 = complete control), Crabgrass, Large","large crabgrass; 62 g ai/ha, preemergence",40
same,"Plant response rating, Crabgrass, Large",large crabgrass; [3],100
same,"Plant response rating, Crabgrass, Large",large crabgrass; [13],100
same,"Plant response rating, Crabgrass, Large",large crabgrass; [15],0
same,"Plant response rating, Crabgrass, Large",large crabgrass; [16],0
same,"Plant response rating, Crabgrass, Large",large crabgrass; [17],0
same,"Plant response rating, Nutsedge, Yellow","yellow nutsedge; 31 g ai/ha, scale 0 to 100, last section of Table C, preemergence",0
same,"Plant response rating (0 = no effect, 100 = complete control), Nutsedge, Yellow","yellow nutsedge; 62 g ai/ha, preemergence",0
same,"Plant response rating, Nutsedge, Yellow",yellow nutsedge; [3],0
same,"Plant response rating, Nutsedge, Yellow",yellow nutsedge; [15],0
same,"Plant response rating, Nutsedge, Yellow",yellow nutsedge; [16],0
same,"Plant response rating, Nutsedge, Yellow",yellow nutsedge; [17],0
same,"Plant response rating (0 = no effect, 100 = complete control), Pigweed","pigweed; 62 g ai/ha, preemergence",100
same,"Plant response rating, Pigweed",pigweed; [3],100
same,"Plant response rating, Pigweed",pigweed; [15],80
same,"Plant response rating, Pigweed",pigweed; [16],65
same,"Plant response rating, Pigweed",pigweed; [17],50
same,"Plant response rating, Velvetleaf",velvetleaf; [3],30
same,"Plant response rating, Velvetleaf",velvetleaf; [15],50
same,"Plant response rating, Velvetleaf",velvetleaf; [16],50
same,"Plant response rating, Velvetleaf",velvetleaf; [17],30
same,Morningglory plant response rating,morningglory; [18],20
same,"Plant response rating, Morningglory",morningglory; [19],35
same,Morningglory plant response rating,morningglory; [21],30
same,Morningglory plant response rating,morningglory; [20],85
same,"Plant response rating, Soybean",soybean; [3],10
same,"Plant response rating, Soybean",soybean; [15],35
same,"Plant response rating, Soybean",soybean; [16],30
same,"Plant response rating, Soybean",soybean; [17],20
same,"Plant response rating (0 = no effect, 100 = complete control), Goosegrass","goosegrass; 62 g ai/ha, preemergence",60
same,"Plant response rating, Goosegrass",goosegrass; [3],85
same,"Plant response rating, Goosegrass",goosegrass; [15],5
same,"Plant response rating, Goosegrass",goosegrass; [16],0
same,"Plant response rating, Goosegrass",goosegrass; [17],0
same,Barnyardgrass plant response rating,barnyardgrass; [9],15
same,Barnyardgrass plant response rating,barnyardgrass; [14],40
same,Barnyardgrass plant response rating,barnyardgrass; [11],55
same,"Plant response rating, Barnyardgrass",barnyardgrass; [12],65
same,"Foxtail, Giant plant response rating",giant foxtail [1]; [18],20
same,"Plant response rating, Foxtail, Giant",giant foxtail [1]; [19],40
same,"Foxtail, Giant plant response rating",giant foxtail [1]; [21],60
same,"Foxtail, Giant plant response rating",giant foxtail [1]; [20],75
same,"Plant response rating (0 = no effect, 100 = complete control), Foxtail, Giant","giant foxtail [2]; 62 g ai/ha, preemergence",40
same,"Plant response rating, Foxtail, Giant",giant foxtail [2]; [3],80
same,"Plant response rating, Foxtail, Giant",giant foxtail [2]; [13],95
same,"Plant response rating, Foxtail, Giant",giant foxtail [2]; [15],10
same,"Plant response rating, Foxtail, Giant",giant foxtail [2]; [16],0
same,"Plant response rating, Foxtail, Giant",giant foxtail [2]; [17],0
